Source: PubChem BioAssay AID256 (DTP/NCI, 2004)
Toxic doses and inconclusive results are not listed.

Tested on: CD2F1 mice, L1210 leukemia ip, survival T/C
Assay: NCI In Vivo Anticancer Drug Screen. Data for tumor model L1210 Leukemia (intraperitoneal) in CD2F1 (CDF1) mice
Settings: endpoint: mean survival time, higher = longer survival
Procedure, shortened: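 Each value reflects a quotient of treated over vehicle control outcomes in mice with a transplanted tumor.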

[1] = dose: 100.0 mg/kg/injection, schedule: Q01DX009 (ip), vehicle: saline with Tween-80
[2] = dose: 200.0 mg/kg/injection, schedule: Q01DX009 (ip), vehicle: saline with Tween-80
[3] = dose: 400.0 mg/kg/injection, schedule: Q01DX009 (ip), vehicle: saline with Tween-80

N=C(N)SCc1c2ccccc2c(CSC(=N)N)c2ccccc12
T/C (dose: 0.06 mg/kg/injection, schedule: Q#B X Z (ip), vehicle: saline): 109 % of control | T/C (dose: 0.13 mg/kg/injection, schedule: Q#B X Z (ip), vehicle: saline): 121 % of control | T/C (dose: 0.39 mg/kg/injection, schedule: Q01DX Z (ip), vehicle: saline): 115 % of control | T/C (dose: 0.78 mg/kg/injection, schedule: Q01DX Z (ip), vehicle: saline): 121 % of control | T/C (dose: 1.04 mg/kg/injection, schedule: Q#B X Z (ip), vehicle: saline): 155 % of control | T/C (dose: 2.08 mg/kg/injection, schedule: Q#B X Z (ip), vehicle: saline): 160 % of control | T/C (dose: 3.13 mg/kg/injection, schedule: Q01DX Z (ip), vehicle: saline): 151 % of control | T/C (dose: 6.25 mg/kg/injection, schedule: Q01DX Z (ip), vehicle: saline): 162 % of control | T/C (dose: 8.33 mg/kg/injection, schedule: Q#B X Z (ip), vehicle: saline): 119 % of control | T/C (dose: 12.5 mg/kg/injection, schedule: Q01DX Z (ip), vehicle: saline): 156 % of control | T/C (dose: 16.66 mg/kg/injection, schedule: Q#B X Z (ip), vehicle: saline): 98 % of control | T/C (dose: 25.0 mg/kg/injection, schedule: Q01DX Z (ip), vehicle: saline): 155 % of control | T/C (dose: 50.0 mg/kg/injection, schedule: Q01DX001 (ip), vehicle: saline): 158 % of control | T/C (dose: 50.0 mg/kg/injection, schedule: Q03HX008 (ip), vehicle: saline): 178 % of control | T/C (dose: 50.0 mg/kg/injection, schedule: Q03HX016 (ip), vehicle: saline): 175 % of control | T/C (dose: 50.0 mg/kg/injection, schedule: Q06HX004 (ip), vehicle: saline): 151 % of control | T/C (dose: 50.0 mg/kg/injection, schedule: Q08DX002 (ip), vehicle: saline): 174 % of control | T/C (dose: 50.0 mg/kg/injection, schedule: Q12HX002 (ip), vehicle: saline): 173 % of control | T/C (dose: 50.0 mg/kg/injection, schedule: Q12HX004 (ip), vehicle: saline): 189 % of control | T/C (dose: 80.0 mg/kg/injection, schedule: Q01DX001 (ip), vehicle: saline): 168 % of control | T/C (dose: 100.0 mg/kg/injection, schedule: Q01DX001 (ip), vehicle: saline): 193 % of control | T/C (dose: 100.0 mg/kg/injection, schedule: Q01DX009 (ip), vehicle: saline): 154 % of control | T/C (dose: 100.0 mg/kg/injection, schedule: Q01DX Z (ip), vehicle: saline): 124 % of control | T/C (dose: 100.0 mg/kg/injection, schedule: Q03HX008 (ip), vehicle: saline): 196 % of control | T/C (dose: 100.0 mg/kg/injection, schedule: Q03HX016 (ip), vehicle: saline): 194 % of control | T/C (dose: 100.0 mg/kg/injection, schedule: Q08DX002 (ip), vehicle: saline): 220 % of control | T/C (dose: 100.0 mg/kg/injection, schedule: Q12HX002 (ip), vehicle: saline): 239 % of control | T/C (dose: 100.0 mg/kg/injection, schedule: Q12HX004 (ip), vehicle: saline): 224 % of control | T/C (dose: 125.0 mg/kg/injection, schedule: Q01DX001 (ip), vehicle: saline): 113 % of control | T/C (dose: 200.0 mg/kg/injection, schedule: Q01DX001 (ip), vehicle: saline): 227 % of control | T/C (dose: 200.0 mg/kg/injection, schedule: Q01DX009 (ip), vehicle: saline): 106 % of control | T/C (dose: 200.0 mg/kg/injection, schedule: Q01DX010 (oral), vehicle: saline): 94 % of control | T/C (dose: 200.0 mg/kg/injection, schedule: Q01DX Z (ip), vehicle: saline): 88 % of control | T/C (dose: 200.0 mg/kg/injection, schedule: Q03HX008 (ip), vehicle: saline): 207 % of control | T/C (dose: 200.0 mg/kg/injection, schedule: Q03HX016 (ip), vehicle: saline): 204 % of control | T/C (dose: 200.0 mg/kg/injection, schedule: Q06HX008 (ip), vehicle: saline): 179 % of control | T/C (dose: 200.0 mg/kg/injection, schedule: Q08DX002 (ip), vehicle: saline): 197 % of control | T/C (dose: 200.0 mg/kg/injection, schedule: Q12HX002 (ip), vehicle: saline): 254 % of control | T/C (dose: 200.0 mg/kg/injection, schedule: Q12HX004 (ip), vehicle: saline): 158 % of control | T/C (dose: 320.0 mg/kg/injection, schedule: Q01DX001 (ip), vehicle: saline): 100 % of control | T/C (dose: 400.0 mg/kg/injection, schedule: Q01DX010 (oral), vehicle: saline): 90 % of control | T/C (dose: 400.0 mg/kg/injection, schedule: Q03HX016 (ip), vehicle: saline): 111 % of control | T/C (dose: 400.0 mg/kg/injection, schedule: Q06HX004 (ip), vehicle: saline): 183 % of control | T/C (dose: 400.0 mg/kg/injection, schedule: Q06HX008 (ip), vehicle: saline): 152 % of control | T/C (dose: 400.0 mg/kg/injection, schedule: Q08DX002 (ip), vehicle: saline): 152 % of control | T/C (dose: 400.0 mg/kg/injection, schedule: Q12HX004 (ip), vehicle: saline): 118 % of control | T/C (dose: 800.0 mg/kg/injection, schedule: Q01DX010 (oral), vehicle: saline): 88 % of control | T/C (dose: 1000.0 mg/kg/injection, schedule: Q01DX001 (ip), vehicle: saline): 162 % of control

CN(Cc1ccccc1)N=Nc1ccc(C(=O)O)cc1
T/C (dose: 25.0 mg/kg/injection, schedule: Q01DX009 (ip), vehicle: other): 105 % of control | T/C (dose: 50.0 mg/kg/injection, schedule: Q01DX009 (ip), vehicle: other): 108 % of control | T/C (dose: 100.0 mg/kg/injection, schedule: Q01DX009 (ip), vehicle: other): 101 % of control

Brc1ccc(Br)cc1
T/C [1]: 103 % of control | T/C [2]: 100 % of control | T/C [3]: 97 % of control

Clc1c(Cl)c(Cl)c(Cl)c(Cl)c1Cl
T/C [1]: 97 % of control | T/C (dose: 100.0 mg/kg/injection, schedule: Q04DX003 (ip), vehicle: saline with Tween-80): 97 % of control | T/C [2]: 100 % of control | T/C (dose: 200.0 mg/kg/injection, schedule: Q04DX003 (ip), vehicle: saline with Tween-80): 94 % of control | T/C [3]: 103 % of control | T/C (dose: 400.0 mg/kg/injection, schedule: Q04DX003 (ip), vehicle: saline with Tween-80): 102 % of control

C(=C\c1ccccc1)/C[P+](c1ccccc1)(c1ccccc1)c1ccccc1
T/C (dose: 5.0 mg/kg/injection, schedule: Q01DX009 (ip), vehicle: saline with Tween-80): 98 % of control | T/C (dose: 5.0 mg/kg/injection, schedule: Q04DX003 (ip), vehicle: saline with Tween-80): 100 % of control | T/C (dose: 10.0 mg/kg/injection, schedule: Q01DX009 (ip), vehicle: saline with Tween-80): 100 % of control | T/C (dose: 10.0 mg/kg/injection, schedule: Q04DX003 (ip), vehicle: saline with Tween-80): 100 % of control | T/C (dose: 20.0 mg/kg/injection, schedule: Q01DX009 (ip), vehicle: saline with Tween-80): 94 % of control | T/C (dose: 20.0 mg/kg/injection, schedule: Q04DX003 (ip), vehicle: saline with Tween-80): 97 % of control

CC(c1ccc2ccccc2c1)C1CCCCC1C(=O)O (stereo not given)
T/C [1]: 102 % of control | T/C [2]: 100 % of control | T/C [3]: 97 % of control

CC(C)(C)c1ccc(-n2cnc3c(=O)[nH]c(N)nc32)cc1
T/C (dose: 50.0 mg/kg/injection, schedule: Q04DX002 (ip), vehicle: saline with Tween-80): 86 % of control | T/C (dose: 100.0 mg/kg/injection, schedule: Q04DX002 (ip), vehicle: saline with Tween-80): 90 % of control

CNC(=O)N(C)c1ccccc1
T/C (dose: 100.0 mg/kg/injection, schedule: Q04DX002 (ip), vehicle: saline): 101 % of control | T/C (dose: 200.0 mg/kg/injection, schedule: Q04DX002 (ip), vehicle: saline): 101 % of control | T/C (dose: 400.0 mg/kg/injection, schedule: Q04DX002 (ip), vehicle: saline): 101 % of control

CC1CN=C(c2ccc(NC(=O)c3ccc(C(=O)Nc4ccc(C5=NCC(C)N5)cc4)cc3)cc2)N1 (stereo not given)
T/C (dose: 12.5 mg/kg/injection, schedule: Q01DX009 (ip), vehicle: Klucel (hydroxypropylcellulose) (HPC)): 212 % of control | T/C (dose: 25.0 mg/kg/injection, schedule: Q01DX009 (ip), vehicle: Klucel (hydroxypropylcellulose) (HPC)): 269 % of control | T/C (dose: 50.0 mg/kg/injection, schedule: Q01DX009 (ip), vehicle: Klucel (hydroxypropylcellulose) (HPC)): 290 % of control | T/C (dose: 100.0 mg/kg/injection, schedule: Q01DX009 (ip), vehicle: Klucel (hydroxypropylcellulose) (HPC)): 305 % of control | T/C (dose: 200.0 mg/kg/injection, schedule: Q01DX009 (ip), vehicle: Klucel (hydroxypropylcellulose) (HPC)): 333 % of control | T/C (dose: 400.0 mg/kg/injection, schedule: Q01DX009 (ip), vehicle: Klucel (hydroxypropylcellulose) (HPC)): 288 % of control
